Structures can show the parent of a compound that is named as a salt.
Assays:
MCL-1 = MCL-1 (Homo sapiens (Human), UniProt Q07820, K194A/K197A/R201A); assay: Protein-protein interaction assay MCL-1/Noxa BH3 peptide (MCL-1 assay), TR-FRET; format: binding; conditions: MCL-1/Noxa BH3 peptide TR-FRET; median
How it was run: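 TR-FRET competition between MBP-MCL-1 (173-321, 1 nM) and biotin-Noxa BH3 peptide (1 nM) with anti-MBP-Eu/streptavidin-XL665; 11 compound levels 0.1 nM–20 μM, 10 min preincubation. Incubated 1 h at 22 °C then overnight at 4 °C, pH 7 Tris buffer. 665/620 ratio normalized to DMSO and no-MCL-1; 4-parameter IC50.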

SUDHL10 = assay: Induction of cytotoxicity, SUDHL10 (Assay 6); conditions: read-out: IC50 Cytotox SUDHL10 [M] (median), SUDHL10 cells, 5 h, CellTiter-Glo
Procedure: In principle, compounds that induce apoptosis will concomitantly induce cell cytotoxicity. Therefore, cytotoxicity assays were run in parallel in SUDHL5 and SUDHL10 cells.
The different cell lines were plated in culture medium (RPMI 1640 [GIBCO #22400-089] supplemented with 10% Fetal Bovine Serum) at a density of 3,300 cells in 30 μl/well in a sterile, solid black, flat bottom, polystyrene, TC-treated 384-well microplate (Corning #3571) using Multidrop Combi Reagent Dispenser. As a control, medium without cells was also added to the plate. Cells were incubated in a humidified incubator at 37° C. overnight. On the next day, the cells were treated with compounds (stock solution, 10 mM in DMSO) using the HP D300 Digital Dispenser in a concentration range of 3.3×10e-5 M (33 μM) to 5×10e-9 M (5 nM) in a single-dot curve with at least 16 dilutions and a DMSO concentration of 0.33%. Rim wells were excluded. The cells were incubated for 5 h hours in a humidified incubator at 37° C. After this incubation, 30 μl of CellTiter-Glo® Luminescent Cell Viability reagent (Promega, G7573) was added to each well using the Multidrop Combi Reagent Dispenser, followed by 15 min incubation on a shaker at room temperature. Finally, luminescence was read at 0.1 ms, with a gain of 3000 using the PHERAstar FS microplate reader (BMG Labtech).
The Bella DRC Master Sheet was used to calculate IC50s, with fixed CI=0 and C0=1.

Chain of MCL-1 (Q07820 whole entry K194A/K197A/R201A, looked up): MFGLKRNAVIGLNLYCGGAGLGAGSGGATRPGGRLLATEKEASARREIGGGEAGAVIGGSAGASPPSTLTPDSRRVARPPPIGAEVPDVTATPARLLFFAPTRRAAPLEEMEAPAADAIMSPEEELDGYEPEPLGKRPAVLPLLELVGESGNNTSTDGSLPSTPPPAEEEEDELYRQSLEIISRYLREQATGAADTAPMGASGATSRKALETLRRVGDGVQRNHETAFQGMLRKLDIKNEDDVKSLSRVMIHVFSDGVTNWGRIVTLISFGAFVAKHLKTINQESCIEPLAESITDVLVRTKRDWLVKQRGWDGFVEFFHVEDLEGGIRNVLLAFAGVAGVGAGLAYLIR

Structure (SMILES) | IC50 (MCL-1) [nM] | IC50 (SUDHL10) [M]
Cc1c2c(nn1C)CNCCCCn1c(C(=O)O)c(CCCOc3cccc4ccccc34)c3ccc(F)c-2c31 (single isomer, unassigned; enantiomer 1) [Example 48, 4-fluoro-2,3-dimethyl-7-{3-[(naphthalen-1-yl)oxy]propyl}-10,11,12,13,14,15-hexahydro-2H-pyrazolo[3′,4′:8,9][1,6]diazacycloundecino[10,11,1-hi]indole-8-carboxylic acid (enantiomer 1)] | 1.1 | 1.9e-06
CCc1c2c(nn1C)COCCCCn1c(C(=O)O)c(CCCOc3cccc4cc(F)ccc34)c3ccc(F)c-2c31 (single isomer, unassigned; enantiomer 2) [Example 23, 3-ethyl-4-fluoro-7-{3-[(6-fluoronaphthalen-1-yl)oxy]propyl}-2-methyl-2,10,11,12,13,15-hexahydropyrazolo[4′,3′:9,10][1,6]oxazacycloundecino[8,7,6-hi]indole-8-carboxylic acid-N-ethylethanamine salt (enantiomer 2)] | 9.6 | 9e-06

Source: patent US11286263B2, “Macrocyclic fluorine substituted indole derivatives” (The Broad Institute, Inc., priority 2017, dated 2022)
